In patent US12453750B2, “Fixed dose combination of cannabinoids and medical mushrooms for prevention and treatment of cancer, inflammatory or immune-mediated inflammatory diseases” (priority 2019, dated 2025):

Assays:
[1] = test system: NO secretion from RAW cells; test: Nitric Oxide (NO) test (Griess test) on supernatants of LPS-stimulated RAW cells; type: cell-based, Murine; settings: for concentration effective in inhibiting NO secretion without affecting cells' viability / Cannabinoid NO: RAW cells 24 h; for % inhibition of NO secretion: vs vehicle
Experimental: • a. ⅔ of total final volume of warm water for injection (42° C.) was added to the dry mushroom powder. • b. The suspension was vortexed and centrifuged (4100 rpm, RT, 5 min). • c. The supernatant containing the water-soluble fraction was separated into a clean tube. • d. 5% of total final volume of EtOH was added to the pellet and vortexed to extract ethanol-soluble fractions. Water was added q.s. ad. final volume. • e. The suspension was vortexed and centrifuged. The resulting supernatant was combined and centrifuged again to remove debris, yielding a final concentration of 50 mg/ml. • f. The resulting solution was passed through a cell strainer (40-70 micron). • g. Two additional stocks were prepared in vehicle (5% EtOH in WFI): 10 mg/ml and 2 mg/ml. • h. All Test items/Vehicle were added to the cells at 4 μL into 96 μL medium, yielding final working concentrations of: 2 mg/ml, 0.4 mg/ml, and 0.08 (in 0.2% EtOH, 4% WFI). […] Cell Medium Formulations:
(§1) • a. Cells were harvested at 80% confluence, counted and re-suspend to final concentration of 1×10^6/ml in growth medium. • b. […] Cells were incubated (37±10 C, 5% CO2) for 18-24 hrs. • d. Growth medium was removed; […] medium and 4 μL Vehicle, Test Item, and Controls were added. • e. The content of all wells was mixed by pipetting up and down three times. • f. Plates were incubated for 2 h (37±1° C., 5% CO2). • g. LPS (10 μl, final concentration of 100 ng/ml LPS) was added to all wells. • h. The content of all wells was mixed by pipetting up and down three times. • i. Plates were incubated for 24±2 h (37±1° C., 5% CO2). • j. Medium was collected from the 96-microtiter plate: 50 μl for NO secretion assay and the rest was stored in −20° C. for cytokine secretion assay.
Cell Proliferation and Viability (XTT Assay) • a. XTT reaction solution was prepared. • b. 50 μl of the XTT reaction solution was added into each well. • c. Plates were incubated in a humidified atmosphere (e.g. 37° C., 5% CO2). • d. The plates were shaken gently to evenly distribute the dye in the wells. • e. The absorbance of the samples was measure against a background control as a blank with a spectrophotometer (ELISA reader) at a wavelength of 450 nm. • f. In order to measure reference absorbance (to measure non-specific readings), a wavelength of 620 nm was used to subtract from the 450 nm measurement. • g. […] Nitric Oxide (NO) Test (Griess Test) • a. The Sulfanilamide Solution and NED Solution were allowed to equilibrate to room temperature (15-30 minutes). • b. 1 ml of a 100 μM nitrite solution was prepared by diluting the provided 0.1M Nitrite Standard 1:1,000 in culture medium. • c. 2 columns (16 wells) were designate in the non-binding 96-well plate for the Nitrite Standard reference curve. 50 μl of assay medium were dispensed into the wells in rows B-H (FIG. 1). • d. 100 μl of the 100 μM nitrite solution was added to the remaining 2 wells in row A. serial twofold dilutions (50 μl/well) were performed immediately in duplicate down the plate to generate the Nitrite Standard reference curve (100, 50, 25, 12.5, 6.25, 3.13 and 1.56 μM), discarding 50 μl from the 1.56 μM set of wells • e. 50 μl of the Sulfanilamide Solution were dispensed to all experimental samples and wells containing the dilution series for the Nitrite Standard reference curve. • f. The plate was incubated 5-10 minutes at room temperature, protected from light. • g. 50 μl of the NED Solution was dispensed to all wells. • h. The plate was incubated 5-10 minutes at room temperature, protected from light. • i. Absorbance was measured within 30 minutes in a plate reader with a filter between 520 nm and 550 nm. • j.

[2] = test system: IL-6 secretion from RAW cells; test: IL-6 secretion, Multiplex analysis of medium of LPS-stimulated RAW cells; type: cell-based, Murine; settings: CBD (15 μM)
Experimental: as §1
(§2) Cytokine Secretion • a. Reishi, Cordyceps M, Agaricus blazei, and Cordyceps Cs-4 were incubated with […] at 0.08-2 mg/ml for 24 hours. • b. Medium from cells was collected for Multiplex analysis (CCL3/MIP1α, IL-6, IL-1β, TNFα, IL-10 and IL-6) in duplicates. • c.
(§3) Cytokine Secretion • a. CBD (15 μM) and THC (20 μM) were incubated with […]. • b. Medium from cells was collected for Multiplex analysis (CCL3/MIP1α, IL-6, IL-1β, TNFα, IL-10 and IL-6) in duplicates. • c. […] IL-6 secretion: • i. […] TNFα secretion: • i.
(§4) Cytokine Secretion • a. […]

[3] = test system: TNFα secretion from RAW cells; test: TNFα secretion, Multiplex analysis of medium of LPS-stimulated RAW cells; type: cell-based, Murine; settings: CBD (15 μM), THC (20 μM)
Experimental: as §1, §2, §3, §4

[4] = test system: PANC-1 cells; test: Viability assay (XTT) of PANC-1 cells; type: cell-based, Human; settings: 72 hours; for % viability at the potent concentrations: CBD 40-100 μM, THC 100-375 μM, no dose response
Experimental: (§5) • a. PANC-1 cells (Human Pancreatic Cancer cells) (American Type Culture Collection, Rockville, MD, USA). • b. EGL-1 cells (Human extrahepatic cholangio carcinoma) Cell Growth:
Growth medium for PANC-1/EGL-1 cells: Dulbecco's Modified Eagle Medium (DMEM) high glucose supplemented with 10% Fetal Bovine Serum (FBS), 2 mM L-Glutamine, and 1% Penicillin-Streptomycin solution (PS).
Assay medium for PANC-1: Assay medium contained only 1% FBS.
(§6) • a. Cells were harvest at 80% confluence, counted and re-suspend to final concentration of 75×10^3/ml (PANC-1) or 50×103 (EGL-1) in growth medium. • b. Panc-1 cell suspension was seeded in 96-well microtiter plate at 7500 cells/100 μl/well and EGL-1 cell suspension was seeded in 96-well microtiter plate at 5000 cells/l100p/well. • c. Cells were incubated (37±10 C, 5% CO2) for 18-24 hrs. • d. Growth medium was removed; 80 μL assay medium and 20 μL Vehicle, Test Item, and Controls were added. […] The content of all wells was mixed by pipetting up and down three times. • f. Plates were incubated for 72±2 h (37±1° C., 5% CO2). • g. The medium on all plates was replaced with 100 μl culture medium. XTT Assay • a. XTT reaction solution was prepared. • b. 50 μl of the XTT reaction solution was added into each well. • c. Plates were incubated in a humidified atmosphere (e.g. 37° C., 5% CO2). • d. The plates were shaken gently to evenly distribute the dye in the wells. • e. The absorbance of the samples was measure against a background control as a blank with a spectrophotometer (ELISA reader) at a wavelength of 450 nm. • f. In order to measure reference absorbance (to measure non-specific readings), a wavelength of 620 nm was used to subtract from the 450 nm measurement. • g. The idle absorbance of the cells was 0.5-1.5 in all wells.

[5] = test system: EGL-1 cells; test: Viability assay (XTT) of EGL-1 cells; type: cell-based, Human; settings: 72 hours; for % viability at the potent concentrations: CBD 40-100 μM, THC 100-375 μM
Experimental: as §5
Growth medium for EGL-1 cells: RPMI-1640 medium supplemented with 10% Fetal Bovine Serum (FBS), 2 mM L-Glutamine, and 1% Penicillin-Streptomycin solution (PS).
Assay medium for EGL-1: Assay medium contained only 1% FBS in DMEM low glucose (1 g/L)
as §6

[6] = test system: NCl-H292 (lung cancer) cells; settings: D9-THC at 100-300 nM; cited from earlier work
[7] = test system: U373-MG (glioblastoma) cells; settings: D9-THC at 100-300 nM; cited from earlier work
[8] = test system: cancer cells; settings: D9-THC (4-10 µM); cited from earlier work
[9] = Mus musculus, read-out: % inhibition of NO secretion

SMILES	NO ([1]; CBD 15 μM alone) [µM]	inhibition at 15 µM [1, 9] [%]	concentration effective in inhibiting NO secretion without affecting cells' viability [1] [µM]	Cannabinoid NO ([1]; cannabinoid 15 μM) [µM]	% inhibition of NO secretion ([1]; cannabinoid 15 μM) [%]	Cannabinoid NO ([1]; cannabinoid 20 μM) [µM]	% inhibition of NO secretion ([1]; cannabinoid 20 μM) [%]	effect on IL-6 secretion (in words) [2]	effect on TNFα secretion (in words) [3]	concentration at which potent (viability) [4] [µM]	% viability at the potent concentrations [4] [%]	concentration at which potent (viability) [5] [µM]	% viability at the potent concentrations [5]	inhibition at 20 µM [1, 9] [%]	NO ([1]; THC 20 μM alone) [µM]	increase in the proliferation rate [6] [fold]	increase in the proliferation rate [7] [fold]	number of apoptotic cells [8]
C=C(C)[C@@H]1CCC(C)=C[C@H]1c1c(O)cc(CCCCC)cc1O [CBD, cannabidiol]	6.67	40.2	15 to 20	11.8	38.6	5.07	73.6	did not affect IL-6 secretion	did not affect TNFα secretion	40 to 100	35	40 to 100	15-30%					
CCCCCc1cc(O)c2c(c1)OC(C)(C)[C@@H]1CCC(C)=C[C@@H]21 [THC, Δ^9-tetrahydrocannabinol]			20			8.77	54.4		did not affect TNFα secretion	100 to 375	35	100 to 375	15%	66.7	3.72	1.2	2	30-80%
